Test results: patent publication US10919862B2, “Fused imidazoles as mIDH1 inhibitors” (BAYER PHARMA AKTIENGESELLSCHAFT, priority 2015, dated 2021)

Columns and labels:
IDH1 R132H enzyme = IDH1 R132H enzyme (Homo sapiens (Human), UniProt O75874, R132H); experiment: Mutant IDH1 R132H biochemical assay; details: NADPH consumption, luminescent readout; 1.5 nM enzyme, 1 μM NADPH, 250 μM α-KG, 30 minutes, 32° C.
Description: Mutant IDH1 R132H Biochemical Assay
mIDH1 catalyzes the NADPH-dependent reduction of alpha-ketoglutarate (α-KG) to (2R)-2-hydroxyglutarate (2-HG). NADPH consumption was measured by luminescent readout.
The biochemical reactions were performed at 32° C. in 384-well plates using a reaction volume of 41 μL and the following assay buffer conditions: 50 mM Tris pH 7.5, 100 mM NaCl, 20 mM MgCl2, 0.05% BSA, 0.01% Brij, 1 μM NADPH, and 250 μM α-KG. The IDH1 R132H enzyme was used in a final concentration of 1.5 nM. Test compounds were used in a concentration range between 0.002 and 10 μM. The final DMSO concentration was 2.4%.
The reaction was incubated for 30 minutes, then 40 μL of detection mix (0.75 μg/ml Luciferase, 0.02 U/ml Oxidoreductase, 4 μg/mL FMN, 2 μL/ml decanal/ethanol, 50 mM Tris pH 7.5, 0.5% Glycerin, 0.01% Tween-20, 0.05% BSA) was added. Luminescence was measured on a luminescent reader (10 seconds measuring time, 1 second integration period, 30% sensitivity). The decrease in luminescence is proportional to mIDH1 activity. IC50 values are determined by interpolation from plots of relative luminescence versus inhibitor concentration.

LN229 R132H cells = experiment: Mutant IDH1 cellular assay; type: cell-based; details: Homo sapiens, LN-229; 2-HG levels in medium of LN229 R132H cells, 24 hours, fluorescence readout
Description: Mutant IDH1 Cellular Assay
Levels of (2R)-2-hydroxyglutarate (2HG) were measured in medium of a cell line with overexpression of mutated isocitrate dehydrogenase (mIDH) protein. mIDH catalyzes the NADPH-dependent reduction of alpha-ketoglutarate to 2-HG. Cells (LN229 R132H, Mohrenz et al., Apoptosis (2013) 18:1416-1425) were grown in DMEM containing 10% FCS. They were harvested by trypsin and seeded into 96-well plates. Cells were incubated overnight at 37° C. in 5% CO2. The next day test compounds were added to each cell well. The final concentration of DMSO was 0.1% and DMSO controls were included. The plates were then placed in an incubator for 24 hours.
2-HG was measured according to Balss et al. (Acta Neuropathol (2012) 124: 883-891). Briefly, perchloric acid was added to each well and the plates were centrifuged. Aliquots are removed and incubated with hydroxyglutarate dehydrogenase (HGDH), diaphorase, NAD+, and resazurin. The conversion of resazurin to resorufin was detected by fluorescence spectroscopy at Ex 540 nm Em 600 nm. The increase in fluorescence is proportional to 2-HG production. IC50 values are determined by interpolation from plots of relative fluorescence vs inhibitor concentration.

Sequence of IDH1 R132H enzyme (O75874 whole entry R132H): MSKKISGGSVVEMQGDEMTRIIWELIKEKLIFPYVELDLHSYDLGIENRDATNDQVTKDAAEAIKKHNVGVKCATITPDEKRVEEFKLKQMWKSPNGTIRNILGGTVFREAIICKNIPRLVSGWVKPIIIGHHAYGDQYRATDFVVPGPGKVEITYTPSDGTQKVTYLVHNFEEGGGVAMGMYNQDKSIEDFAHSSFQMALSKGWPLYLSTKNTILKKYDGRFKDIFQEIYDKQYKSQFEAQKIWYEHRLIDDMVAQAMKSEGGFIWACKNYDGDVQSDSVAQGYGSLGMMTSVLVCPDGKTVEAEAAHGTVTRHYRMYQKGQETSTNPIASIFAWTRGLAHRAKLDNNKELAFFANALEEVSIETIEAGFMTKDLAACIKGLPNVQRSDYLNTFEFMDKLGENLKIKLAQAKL

| Compound | IC50 (IDH1 R132H enzyme) [µM] | IC50 (LN229 R132H cells) [µM] |
| --- | --- | --- |
| C[C@H]1C[C@@H](n2c(Nc3ccc(OC(F)(F)F)cc3)nc3cc(C(=O)O)ccc32)CC(C)(CO)C1 (stereo partly drawn) [Example 2-1, 1-[(1R,5R)-3-(hydroxymethyl)-3,5-dimethylcyclohexyl]-2-{[4-(trifluoromethoxy)-phenyl]amino}-1H-benzimidazole-5-carboxylic acid] | 0.5 |  |
| C[C@H]1C[C@@H](n2c(Nc3ccc(OC(F)(F)F)cc3)nc3cc(CCC(=O)O)ccc32)CC(C)(C)[C@@H]1O [Example 2-5, 3-(1-[(1R,4R,5S)-4-hydroxy-3,35-trimethylcyclohexyl]-2-{[4-(trifluoromethoxy)-phenyl]amino}-1H-benzimidazol-5-yl)propanoic acid] | 4.1 |  |
| C[C@H]1C[C@@H](n2c(Nc3ccc(OC(F)(F)F)cc3)nc3cc(CCC(=O)O)ccc32)CC(C)(CO)C1 (stereo partly drawn) [Example 2-4, 3-(1-[(1R,5R)-3-(hydroxymethyl)-3,5-dimethylcyclohexyl]-2-{[4-(trifluoromethoxy)-phenyl]amino}-1H-benzimidazol-5-yl)propanoic acid] | 0.27 | 2.2 |
| CC1(C)C[C@@H](n2c(Nc3ccc(OC(F)(F)F)cc3)nc3cnccc32)C[C@@](C)(CO)C1 [Example 2-6, [(1 S,5R)-1,3,3-trimethyl-5-(2-{[4-(trifluoromethoxy)phenyl]amino}-1H-imidazo-[4,5-c]pyridin-1-yl)cyclohexyl]methanol] | 0.03 | 1.6 |
| CC1(C)C[C@@H](CO)C[C@@H](n2c(Nc3ccc(OC(F)(F)F)cc3)nc3cc(CCC(=O)O)ccc32)C1 [Example 2-3, 3-(1-[(1R,5R)-5-(hydroxymethyl)-3,3-dimethylcyclohexyl]-2-{[4-(trifluoromethoxy)-phenyl]amino}-1H-benzimidazol-5-yl)propanoic acid] | 0.18 | 1.2 |
| C[C@H]1C[C@@H](n2c(Nc3ccc(OC(F)(F)F)cc3)nc3cc(C(=O)O)ccc32)CC(C)(C)[C@@H]1O [Example 2-2, 1-[(1R,4R,5S)-4-hydroxy-3,3,5-trimethylcyclohexyl]-2-{[4-(trifluoromethoxy)-phenyl]amino}-1H-benzimidazole-5-carboxylic acid] | 4.8 |  |
